Test [1] concerns HIV. Description: microbe, parasite or virus in culture. It counts as cell-based. To be noted: CEM cells, free HIV, read-out: Activity of Anti-HIV Compounds (EC50), CEMV. On the procedure:
(§1) The compounds of Examples were tested for anti-AIDS activity by subjecting them to standard National Cancer Institute ("NCI") in vitro screening procedures. In carrying out each test, two blanks were run. In the first blank, HIV and a culture of a standard human cell line were incubated together to measure the infectivity of the virus. The viability of the cells was measured after holding for six or seven days. In an "effective" test, most cells were infected before the holding period was complete.
In the second blank, the cell line culture and the compound being tested (but not virus) were incubated together to measure the toxicity of the drug to the cellline. The viability of the cells was measured as a function of concentration of the compound, after holding for seven days. Typically, the cells survive at low compound concentrations, but at some higher concentration, toxicity of the compound is manifested and the cells die. The concentration of the test compound that results in 50% inhibition of cell growth is defined as the IC50.
(§2) Finally, the protective effects of the test compounds were measured. Each cell culture and test compound were incubated with the virus and the viability of the cells was measured as a function of compound concentration after holding for six or seven days. If the compound is active in protecting the cells against the virus, there is typically low cell viability until an effective concentration of the test compound is reached. At this point, cell viability increases steadily toward 100% unless the toxic effect of the compound (as measured in the second blank) takes effect. The concentration of the test compound that results in 50% "control," i.e., a 50% reduction of the viral cytopathic effect, is defined as the EC 50. The therapeutic index TI50 is calculated as IC50/EC50.
(§3) Values of test compound concentrations required for between 20 and 50% reduction of the viral cytopathic effect can also be determined. Such compounds are classified as moderately active.
(§4) The compounds were tested to determine their reduction of HIV cytopathic effect on the human cell lines CEM and MT2. Tests were done by innoculating these cell lines either with free HIV (V) or with a virus Previously cultured with host cells (C). Thus, in Table III the designation CEMV means CEM line cells innoculated with free virus and MT2C means MT2 cells innoculated with cultured viral infected MT2 cells. In some cases the compound was also tested on a cell line together with a sub-effective amount of the known HIV viricide AZT. This is done to test possible synergistic effects. Such a test on the CEM line is denoted CEMZ.
1) T4 lymphocytes (CEM cell line) are exposed to HIV at a virus to cell ratio of approximately 0.05 and plated along with non-infected control cells in 96-well microtiter plates.
2) Each candidate agent is dissolved in dimethyl sulfoxide (unless otherwise indicated), then diluted 1:200 in cell culture medium. Further dilutions (five-fold) are prepared before adding to an equal volume of medium containing either infected or noninfected cells.
3) Cultures are incubated at 37° C. in a 5% carbon dioxide atmosphere for seven days (if six days the CEMV test is identified as CEM-6).
(§5) 4) The tetrazolium salt, XTT, is added to all wells, and cultures are incubated to allow formazan color development by viable cells.
(§6) 5) Individual wells are analyzed spectrophotometrically to quantity formazan production, and in addition are viewed microscopically for detection of viable cells and confirmation of protective activity.
(§7) 6) Drug-treated virus-infected cells are compared with drug-treated non-infected cells and with other appropriate controls (untreated infected and untreated non-infected cells, drug-containing wells without cells, etc.) on the same plate.
7) A determination of activity is made. […]

The test system of test [2] is HIV. In words: Reduction of HIV cytopathic effect, CEM-IW protocol. In kind it is cell-based. To be noted: asterisk: CEMIW protocol; for EC50: CEM cells, drug added before virus, read-out: Activity of Anti-HIV Compounds (EC50), CEM-IW; for Activity class of Anti-HIV Compounds, CEM-IW: inhibition of viral cytopathic effect. On the procedure:
as §1, §2, §3, §4
The aforementioned identifiers are used when a batch was prepared and samples inserted into the wells. In procedures calling for the addition of the drug (or no drug) and the CEM uninfected cells to each well, followed by the subsequent addition of the HIV virus, the protocol is designated as CEM-IW.
as §5, §6, §7
Asterisks indicate the CEMIW protocol.
In general terms: Cytopathic effects are the visible damage that an infection or toxin causes in cultured cells.

Setting [3] is: Human immunodeficiency virus 1, CCRF-CEM.

This is an account of results in patent US5268389A, “Thiocarboxylate ester compounds compositions containing the same” (priority 1990, dated 1993).

Where “and” joins values, the source holds several entries; their conditions need not be identical. Identical values can stand only once.

Broadly, the EC50 is the concentration needed to bring the measured effect to its halfway point.

For `CC(C)OC(=O)c1cc(NC(=O)c2c(Br)c(Br)c(Br)c(Br)c2C(=O)O)ccc1Cl` [Compound 21, 2,3,4,5-Tetrabromo-6-[[[4-chloro-3-[(1-methylethoxy)carbonyl]phenyl]amino]carbonyl]benzoic acid], the results for the EC50 in the test with HIV [1] and with HIV [1] (setting [3]) were 36200 nM and 58200 nM, respectively. `CCOC(=S)Nc1ccc(Cl)c(C(=O)OC(C)C)c1` [Compound 33]: the EC50 in the test on HIV [2] (setting [3]) was 660 nM; in the test on HIV [2] it was 680 nM and 730 nM. `CCOC(=O)c1cc(NC(=S)OC(C)C)ccc1C` [Compound 150]: the EC50 in the test with HIV [2] (setting [3]) is 210 nM; in the test on HIV [2] it was 230 nM and 296 nM and 329 nM. Consider `CCCSC(=Nc1ccc(Cl)c(C(=O)OC(C)C)c1)OC(C)C` [Compound 52], for which the EC50 in the test with HIV [2] (setting [3]) is 2440 nM; in the test on HIV [2] it was 2470 nM and 1940 nM. With `CC(C)OC(=O)c1cc(NC(=O)C(C)(C)C)c(F)cc1Cl` [Compound 30, 1-Methylethyl 2-chloro-5-[(2,2-dimethyl-1-oxopropyl)amino]-4-fluorobenzoate], the half-maximal effective concentration (EC50) in the test on HIV [1] (setting [3]) worked out at 42700 nM. For `CC(C)OC(=O)c1cc(NC(=O)c2ccccc2I)ccc1Cl` [Compound 82, 1-Methylethyl 2-chloro-5-[(2-iodobenzoyl)amino]benzoate], the 50% effective concentration (EC50) is 2670 nM with HIV [2] (setting [3]); 2560 nM and 2150 nM and 2880 nM in the test on HIV [2]. `CC(C)OC(=O)c1cc(NC(=S)c2ccccc2)ccc1Cl` [Compound 61, Benzoic acid, 2-chloro-5-(phenylthioxomethyl) amino-, 1-methylethyl ester]: the EC50 with HIV [2] (setting [3]) is 390 nM; with HIV [2], 620 nM and 420 nM and 450 nM. For `CC(C)OC(=O)c1cc(NC(=O)OC2CCCCC2)ccc1Cl` [Compound 102], in the test with HIV [2], the “Activity class of Anti-HIV Compounds, CEM-IW” value (“Activity class” for short) is “MA (moderate activity (MA), that is, inhibition between approximately 20 and 50%)”. As for `CC1=C(C(=O)Nc2cccc(C(=O)OC(C)C)c2)SCCO1` [Compound 10, 1-Methylethyl 3-[[(5,6-dihydro-2-methyl-1,4-oxathiin-3-yl)carbonyl]amino]benzoate], the EC50 worked out at 2900 nM in the test with HIV [1] and 3000 nM in the test on HIV [1] (setting [3]). The matching figures for `CC1=C(C(=O)Nc2cc(C(=O)OC(C)C)ccc2F)SCCO1` [Compound 13, 1-Methylethyl 3-[[(5,6-dihydro-2-methyl-1,4-oxathiin-3-yl)carbonyl]amino]-4-fluorobenzoate]: 13200 nM and 15200 nM. As to `CC(C)OC(=O)c1cc(NC(=S)OCC2CCCO2)ccc1Cl` (stereo not drawn) [Compound 43], the “Activity class” value in the test with HIV [2] is “MA (moderate activity (MA), that is, inhibition between approximately 20 and 50%)”. Still for that read-out and setting: next, `CC1=C(C(=O)Nc2ccc(O)c(C(=O)OC(C)C)c2)SCCO1` [Compound 112, 1-Methylethyl 5-[[(5,6-dihydro-2-methyl-1,4-oxathiin-3-yl)-carbonyl]amino]-2-hydroxybenzoate]: “MA (moderate activity (MA), that is, inhibition between approximately 20 and 50%)”; `CC(C)OC(=O)c1cc(NC(=S)OCc2ccccc2)ccc1Cl` [Compound 117]: “MA (moderate activity (MA), that is, inhibition between approximately 20 and 50%)”. As to `CCC1=C(C(=O)Nc2ccc(Cl)c(C(=O)OC(C)C)c2)SCCO1` [Compound 7, 1-Methylethyl 2-chloro-5-[[(2-ethyl-5,6-dihydro-1,4-oxathiin-3-yl)carbonyl]amino]benzoate], the EC50 in the test with HIV [1] was 700 nM; in the test on HIV [1] (setting [3]) it was 840 nM. For `Cc1occc1C(=S)Nc1ccc(Cl)c(C(=O)OC(C)C)c1` [Compound 59, 1-methylethyl 2-chloro-5-[(2-methyl-3-furanyl)thioxomethyl]amino benzoate], the half-maximal effective concentration (EC50) with HIV [2] (setting [3]) was 43 nM; in the test on HIV [2], 37 nM. For the molecule `COc1ccccc1NC(=O)Nc1ccc(Cl)c(C(=O)OC(C)C)c1` [Compound 99], the “Activity class” value with HIV [2] is “MA (moderate activity (MA), that is, inhibition between approximately 20 and 50%)”. The same measure, in the same setting: to `CC(=O)Oc1ccc(NC(=O)C2=C(C)OCCS2)cc1C(=O)OC(C)C` [Compound 157] belongs “MA (moderate activity (MA), that is, inhibition between approximately 20 and 50%)”.

On to `COC(=O)c1ccccc1S(=O)(=O)NC(=O)Nc1ccc(Cl)c(C(=O)OC(C)C)c1` [Compound 130], for which the “Activity class” value in the test with HIV [2] is “MA (moderate activity (MA), that is, inhibition between approximately 20 and 50%)”. Same read-out and setting: to `CC(C)OC(=O)c1cc(NC(=NS(=O)(=O)c2ccccc2)c2ccccc2F)ccc1Cl` [Compound 131] belongs “MA (moderate activity (MA), that is, inhibition between approximately 20 and 50%)”.

For the molecule `Cc1oc(C)c(C(=S)Nc2ccc(Cl)c(C(=O)OC(C)C)c2)c1C` [Compound 58, 1-Methylethyl 2-chloro-5-[(2,4,5-trimethyl 3-furanyl)thioxomethyl]amino1benzoate], the EC50 is 870 nM in the test on HIV [2] (setting [3]); 750 nM and 1060 nM and 900 nM in the test with HIV [2]. As to `CCCOC(=O)c1cc(NC(=S)OC(C)C)ccc1Cl` [Compound 154], in the test with HIV [2] (setting [3]), the half-maximal effective concentration (EC50) came out at 44.3 nM.

On to `CCCCOC(=O)c1cc(NC(=S)OC(C)C)ccc1Cl` [Compound 153], for which the EC50 with HIV [2] (setting [3]) is 71.9 nM; in the test on HIV [2], 42.6 nM and 53 nM. As to `CC(C)OC(=O)c1cc(NC(=S)OC2C=CCCC2)ccc1Cl` (stereo not drawn) [Compound 39], the EC50 in the test on HIV [2] (setting [3]) is 1090 nM; with HIV [2] it was 1470 nM and 1750 nM and 1460 nM.

Take `CCC(=O)Oc1ccc(NC(=O)C2=C(C)OCCS2)cc1C(=O)OC(C)C` [Compound 158]: the 50% effective concentration (EC50) in the test on HIV [2] (setting [3]) is 6100 nM; in the test on HIV [2], 6770 nM and 4490 nM and 3620 nM. On to `COc1ccccc1C(=S)Nc1ccc(Cl)c(C(=O)OC(C)C)c1` [Compound 65], for which the half-maximal effective concentration (EC50) with HIV [2] (setting [3]) was 476 nM; with HIV [2] it was 404 nM and 588 nM and 509 nM. For the molecule `CCC(C)OC(=O)c1cc(NC(=S)OC(C)C)ccc1Cl` (stereo not drawn) [Compound 152], the 50% effective concentration (EC50) is 71.7 nM in the test on HIV [2] (setting [3]); 41.7 nM and 36.8 nM and 57.1 nM in the test on HIV [2]. For `CCCCCOC(=S)Nc1ccc(Cl)c(C(=O)OC(C)C)c1` [Compound 36], the EC50 in the test with HIV [2] (setting [3]) is 1040 nM; in the test with HIV [2], 1380 nM and 1320 nM and 890 nM. Turning to `CCOC(=O)c1cc(NC(=S)OC(C)C)ccc1Cl` [Compound 148], the “Activity class” value in the test on HIV [2] is “MA (moderate activity (MA), that is, inhibition between approximately 20 and 50%)”. Still for that read-out and setting: to `CC(=O)Nc1ccccc1C(=O)Nc1ccc(Cl)c(C(=O)OC(C)C)c1` [Compound 114, 1-Methylethyl 5-[(2-acetamidobenzoyl)amino]-2-chlorobenzoate] belongs “MA (moderate activity (MA), that is, inhibition between approximately 20 and 50%)”.

With `C=CCOC(=S)Nc1ccc(Cl)c(C(=O)OC(C)C)c1` [Compound 37], the concentration giving a half-maximal response (EC50) in the test with HIV [2] (setting [3]) was determined as 320 nM; in the test on HIV [2], 200 nM. Take `COc1ccccc1C(=O)Nc1ccc(Cl)c(C(=O)OCC2CCCO2)c1` (stereo not drawn) [Compound 83, Tetrahydro-2-furanylmethyl 2-chloro-5-[(2-methoxybenzoyl)-amino]benzoate]: in the test on HIV [2], the “Activity class” value is “MA (moderate activity (MA), that is, inhibition between approximately 20 and 50%)”.

On to `CC1=C(C(=O)Nc2ccccc2C(=O)Nc2ccc(Cl)c(C(=O)OC(C)C)c2)SCCO1` [Compound 147], for which the EC50 in the test with HIV [2] (setting [3]) was found to be 590 nM; in the test with HIV [2] it was 608 nM. For `CCCOC(=S)Nc1ccc(Cl)c(C(=O)OC(C)C)c1` [Compound 35], the EC50 is 240 nM with HIV [2] (setting [3]); 180 nM and 200 nM in the test with HIV [2]. For the molecule `CCOC(=O)c1cc(NC(=S)OC(C)C)ccc1SC` [Compound 145], the half-maximal effective concentration (EC50) in the test with HIV [2] (setting [3]) is 260 nM; in the test on HIV [2], 373 nM and 243 nM and 422 nM. On to `CCC(CC)OC(=O)c1cc(NC(=S)OC(C)C)ccc1Cl` [Compound 151], for which the concentration for a half-maximal effect (EC50) in the test with HIV [2] (setting [3]) was 95.4 nM; in the test on HIV [2] it was 84.2 nM and 77.7 nM and 53.7 nM.
